Measurements reported in PubChem BioAssay AID1919017 (Molecular Pharmacology Branch, DTP, NCI, 2023).

Tested on: SW1271 complex spheroids with HUVEC/MSC, growth, % test/control
Test: Anticancer human tumor SW1271 cell line growth inhibition [AhR];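 also: spheroids exposed to agents for 7 days before readout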
Conditions: for IC50: curve of first compound; for viability, T/C: stronger effect = lower value; active = viability on the fitted dose curve at most 10% of control; inactive = the rest
Description: Multicellular complex tumor spheroid response to aryl hydrocarbon receptor antagonists in combination with a variety of drugs and investigational agents in selected tumor cell lines
The current study was undertaken to assess response to aryl hydrocarbon receptor antagonists in combination with standard-of-care drugs and investigational agents in solid tumor complex spheroid models. Complex spheroids include a stromal component modeled by human endothelial cells (HUVEC) and fibroblasts modeled by human mesenchymal stem cells (MSCs). The concentration ranges selected for each drug and investigational agent were based upon clinically achievable concentrations if the clinical Cmax of the agent was known.
Compounds. The drugs and investigational agents: BAY 2416964 (NSC825713), GNF351 (NSC835774), CH-223191 (NSC835775), CPI-455 (NSC825282), aza-TdCyd (NSC777586), decitabine (NSC127716), belinostat (NSC758774), entinostat (NSC756642), pevonedistat (NSC761192), tazemetostat (NSC777109), talazoparib (NSC765396), olaparib (NSC753686), selinexor (NSC780203), nedisertib (M3814, NSC802822), bortezomib (NSC756655), venetoclax (NSC766270), doxorubicin (NSC123127), elimusertib (BAY189344, NSC800525), ceralasertib (AZD6738, NSC777638), TAK-243 (NSC785004), alisertib (NSC759677), etoposide (NSC141540), topotecan (NSC609699), eribulin (NSC707389), gemcitabine (NSC613327), carboplatin (NSC241240), cisplatin (NSC119875), and SN-38 (NSC673596) were obtained from the National Cancer Institute (NCI) Developmental Therapeutics Program Chemical Repository (32). The FDA-approved anticancer drug set is available from the Developmental Therapeutics Program at https://dtp.cancer.gov/organization/dscb/obtaining/available plates.htm. […] The stock solutions were prepared in dimethyl sulfoxide (DMSO, Sigma-Aldrich, St. Louis, MO, cat. D2650), except for the platinum compounds which were prepared in saline (Quality Biological, Gaithersburg, MD, cat. 114-055-101), at 800-fold the tested concentration and stored at -70 degrees C prior to their use. All drugs and investigational agents were tested over a range starting from a high concentration at or near the clinical Cmax and decreasing in half-log increments. If the clinical Cmax for an agent had not been determined, the highest concentration tested was 10 microM (Table 1).
Cell Culture. All cells were maintained in an incubator at 37 degrees C and 5% CO2 with 95% humidity. The PDC lines were cultured according to standard operating procedures established by the NCI PDMR (https://pdmr.cancer.gov). Briefly, all PDCs were thawed and cultured in Matrigel-coated flasks prepared with a working solution of 1X Ham's F-12 nutrient mix, without supplementation (Invitrogen, Waltham, MA, cat. 11765054), 100 U/mL penicillin-streptomycin (Invitrogen, cat. 15140122), and 2.5% Matrigel (Corning Inc., Corning, NY, cat. 354248) for the first three passages. All PDCs were cultured in complete DMEM/F-12 media containing advanced DMEM/F-12 (Invitrogen, cat. 12634028), 4.9% defined fetal bovine serum, heat inactivated (HyClone Laboratories Inc., Logan, UT, cat. SH30070.03HI), 389 ng/mL hydrocortisone (Sigma-Aldrich, cat. H4001), 9.7 ng/mL human EGF recombinant protein (Invitrogen, cat. PHG0313), 23.4 microg/mL adenine (Sigma-Aldrich, cat. A2786), 97.3 U/mL penicillin-streptomycin (Invitrogen, cat. 15140122), 1.9 mM L-glutamine (Invitrogen, cat. 25030081), and 9.7 microM Y-27632 dihydrochloride (Tocris Bioscience, Bristol, United Kingdom, cat. 1254). The PDCs were cultured in complete DMEM/F12 media without 10 microM Y-27632 dihydrochloride for at least two passages prior to the screen. The established cell lines NCI-H1341 and […] were cultured in DMEM/F-12, HEPES (Invitrogen, cat. 11330032), 5% defined fetal bovine serum (HyClone Laboratories Inc., cat. SH30070.03), ITS premix universal culture supplement [insulin (5 microg/mL), transferrin (5 microg/mL), and selenious acid (5 ng/mL)] […]

[1] = second compound 0.1 µM, first compound 0.0316 µM
[2] = second compound 0.1 µM, first compound 0.1 µM
[3] = second compound 0.1 µM, first compound 0.316 µM
[4] = second compound 0.1 µM, first compound 1 µM
[5] = second compound 0.1 µM, first compound 3.16 µM
[6] = second compound 0.1 µM, first compound 10 µM
[7] = second compound 0.316 µM, first compound 0.0316 µM
[8] = second compound 0.316 µM, first compound 0.1 µM
[9] = second compound 0.316 µM, first compound 0.316 µM
[10] = second compound 0.316 µM, first compound 1 µM
[11] = second compound 0.316 µM, first compound 3.16 µM
[12] = second compound 0.316 µM, first compound 10 µM
[13] = second compound 1 µM, first compound 0.0316 µM
[14] = second compound 1 µM, first compound 0.1 µM
[15] = second compound 1 µM, first compound 0.316 µM
[16] = second compound 1 µM, first compound 1 µM
[17] = second compound 1 µM, first compound 3.16 µM
[18] = second compound 1 µM, first compound 10 µM
[19] = second compound 3.16 µM, first compound 0.0316 µM
[20] = second compound 3.16 µM, first compound 0.1 µM
[21] = second compound 3.16 µM, first compound 0.316 µM
[22] = second compound 3.16 µM, first compound 1 µM
[23] = second compound 3.16 µM, first compound 3.16 µM
[24] = second compound 3.16 µM, first compound 10 µM
[25] = second compound 10 µM, first compound 0.0316 µM
[26] = second compound 10 µM, first compound 0.1 µM
[27] = second compound 10 µM, first compound 0.316 µM
[28] = second compound 10 µM, first compound 1 µM
[29] = second compound 10 µM, first compound 3.16 µM
[30] = second compound 10 µM, first compound 10 µM

CCc1c2c(nc3ccc(O)cc13)-c1cc3c(c(=O)n1C2)COC(=O)[C@]3(O)CC + CC(CO)NC(=O)c1cc(-c2ccc(Cl)cc2)nn(-c2cnn(C)c2)c1=O
inactive: viability, T/C (second compound 0.1 µM, first compound 0.000949 µM) 83% | viability, T/C (second compound 0.1 µM, first compound 0.003 µM) 83.5% | viability, T/C (second compound 0.1 µM, first compound 0.00949 µM) 66% | viability, T/C (second compound 0.1 µM, first compound 0.03 µM) 51% | viability, T/C (second compound 0.1 µM, first compound 0.0949 µM) 48.2% | viability, T/C (second compound 0.1 µM, first compound 0.3 µM) 47.3% | viability, T/C (second compound 0.316 µM, first compound 0.000949 µM) 72.8% | viability, T/C (second compound 0.316 µM, first compound 0.003 µM) 79% | viability, T/C (second compound 0.316 µM, first compound 0.00949 µM) 67.9% | viability, T/C (second compound 0.316 µM, first compound 0.03 µM) 63.2% | viability, T/C (second compound 0.316 µM, first compound 0.0949 µM) 56.3% | viability, T/C (second compound 0.316 µM, first compound 0.3 µM) 58.8% | viability, T/C (second compound 1 µM, first compound 0.000949 µM) 73.4% | viability, T/C (second compound 1 µM, first compound 0.003 µM) 85.9% | viability, T/C (second compound 1 µM, first compound 0.00949 µM) 56.6% | viability, T/C (second compound 1 µM, first compound 0.03 µM) 67% | viability, T/C (second compound 1 µM, first compound 0.0949 µM) 54% | viability, T/C (second compound 1 µM, first compound 0.3 µM) 42% | viability, T/C (second compound 3.16 µM, first compound 0.000949 µM) 74.1% | viability, T/C (second compound 3.16 µM, first compound 0.003 µM) 73.8% | viability, T/C (second compound 3.16 µM, first compound 0.00949 µM) 58% | viability, T/C (second compound 3.16 µM, first compound 0.03 µM) 55.1% | viability, T/C (second compound 3.16 µM, first compound 0.0949 µM) 49.1% | viability, T/C (second compound 3.16 µM, first compound 0.3 µM) 50.5% | viability, T/C (second compound 10 µM, first compound 0.000949 µM) 71.6% | viability, T/C (second compound 10 µM, first compound 0.003 µM) 65.8% | viability, T/C (second compound 10 µM, first compound 0.00949 µM) 55.5% | viability, T/C (second compound 10 µM, first compound 0.03 µM) 58.3% | viability, T/C (second compound 10 µM, first compound 0.0949 µM) 45.7% | viability, T/C (second compound 10 µM, first compound 0.3 µM) 54.7%
> 0.3 µM: IC50 (second compound 0.316 µM) | IC50 (second compound 3.16 µM) | IC50 (second compound 10 µM)
0.138 µM: IC50 (second compound 1 µM)
0.0299 µM: IC50 (second compound 0.1 µM)

Nc1ccn(C2OC(CO)C(O)C2(F)F)c(=O)n1 (stereo not given) + CC(CO)NC(=O)c1cc(-c2ccc(Cl)cc2)nn(-c2cnn(C)c2)c1=O
3.71 µM: IC50 (second compound 3.16 µM)
> 10 µM: IC50 (second compound 0.1 µM) | IC50 (second compound 1 µM)
inactive: viability, T/C [1] 59% | viability, T/C [2] 55% | viability, T/C [3] 52.6% | viability, T/C [4] 60.9% | viability, T/C [5] 54.9% | viability, T/C [6] 63.9% | viability, T/C [7] 56.5% | viability, T/C [8] 59.8% | viability, T/C [9] 46.3% | viability, T/C [10] 50.3% | viability, T/C [11] 54.9% | viability, T/C [12] 46.1% | viability, T/C [13] 53.1% | viability, T/C [14] 60.3% | viability, T/C [15] 59% | viability, T/C [16] 61.2% | viability, T/C [17] 53.6% | viability, T/C [18] 55.3% | viability, T/C [19] 48.4% | viability, T/C [20] 58.7% | viability, T/C [21] 56.1% | viability, T/C [22] 59.4% | viability, T/C [23] 47.8% | viability, T/C [24] 42.4% | viability, T/C [25] 45.3% | viability, T/C [26] 58.1% | viability, T/C [27] 57.4% | viability, T/C [28] 59.8% | viability, T/C [29] 54.5% | viability, T/C [30] 44%
2.07 µM: IC50 (second compound 0.316 µM)
5.27 µM: IC50 (second compound 10 µM)

O=C(c1cc(Cc2n[nH]c(=O)c3ccccc23)ccc1F)N1CCN(C(=O)C2CC2)CC1 + CC(CO)NC(=O)c1cc(-c2ccc(Cl)cc2)nn(-c2cnn(C)c2)c1=O
> 10 µM: IC50 (second compound 0.1 µM) | IC50 (second compound 0.316 µM) | IC50 (second compound 1 µM) | IC50 (second compound 3.16 µM) | IC50 (second compound 10 µM)
inactive: viability, T/C [1] 84.4% | viability, T/C [2] 95.4% | viability, T/C [3] 100% | viability, T/C [4] 82.1% | viability, T/C [5] 88.2% | viability, T/C [6] 78.8% | viability, T/C [7] 79.8% | viability, T/C [8] 77.9% | viability, T/C [9] 75.8% | viability, T/C [10] 81.8% | viability, T/C [11] 77.7% | viability, T/C [12] 75.8% | viability, T/C [13] 79.7% | viability, T/C [14] 99.7% | viability, T/C [15] 83.8% | viability, T/C [16] 67.8% | viability, T/C [17] 78% | viability, T/C [18] 103% | viability, T/C [19] 76.9% | viability, T/C [20] 79.3% | viability, T/C [21] 79.8% | viability, T/C [22] 92.2% | viability, T/C [23] 68.5% | viability, T/C [24] 82.5% | viability, T/C [25] 67.8% | viability, T/C [26] 67.3% | viability, T/C [27] 76.2% | viability, T/C [28] 81.7% | viability, T/C [29] 81.2% | viability, T/C [30] 60.6%
